In brackets after ≈: the same amount, converted by molar mass.
Legend:
Type in all cases: functional
Staphylococcus aureus [1] = assay: Antibacterial activity against erythromycin-susceptible Staphylococcus aureus ATCC 29213 by broth microdilution method
[2] = test system: Staphylococcus epidermidis; assay: Antibacterial activity against methicillin-resistant, MLS-resistant (constitutive) Staphylococcus epidermidis E2 by broth microdilution method
Streptococcus pneumoniae [3] = assay: Antibacterial activity against MLS-resistant (constitutive), penicillin-resistant Streptococcus pneumoniae PU11 by broth microdilution method
Streptococcus pyogenes [4] = assay: Antibacterial activity against MLS-resistant (constitutive) Streptococcus pyogenes A2 by broth microdilution method
[5] = test system: Staphylococcus epidermidis; assay: Antibacterial activity against methicillin-susceptible, MLS-resistant (inducible) Staphylococcus epidermidis E1 by broth microdilution method
Staphylococcus aureus [6] = assay: Antibacterial activity against methicillin-resistant, MLS-resistant (inducible) Staphylococcus aureus PU 32 by broth microdilution method
[7] = test system: Streptococcus dysgalactiae; assay: Ratio of telithromycin MIC to compound MIC for erythromycin-resistant Streptococcus dysgalactiae A1 by broth microdilution method
[8] = test system: Staphylococcus epidermidis; assay: Antibacterial activity against methicillin-resistant, coagulase-negative, MLS-resistant (inducible) Staphylococcus epidermidis E3 by broth microdilution method
Staphylococcus aureus [9] = assay: Antibacterial activity against methicillin-resistant, […], MLS-resistant (constitutive) Staphylococcus aureus PU 19 by broth microdilution method
Staphylococcus aureus [10] = assay: Ratio of telithromycin MIC to compound MIC for methicillin-resistant, […], MLS-resistant (constitutive) Staphylococcus aureus PU 19 by broth microdilution method
[11] = test system: Staphylococcus epidermidis; assay: Ratio of telithromycin MIC to compound MIC for methicillin-resistant, coagulase-negative, MLS-resistant (inducible) Staphylococcus epidermidis E3 by broth microdilution method
Streptococcus pyogenes [12] = assay: Ratio of telithromycin MIC to compound MIC for MLS-resistant (constitutive) Streptococcus pyogenes A2 by broth microdilution method
Streptococcus pyogenes [13] = assay: Antibacterial activity against erythromycin-susceptible Streptococcus pyogenes A3 by broth microdilution method
[14] = test system: Streptococcus dysgalactiae; assay: Antibacterial activity against erythromycin-resistant Streptococcus dysgalactiae A1 by broth microdilution method
Streptococcus pneumoniae [15] = assay: Antibacterial activity against penicillin-susceptible Streptococcus pneumoniae PU09 harboring mef gene by broth microdilution method
Streptococcus pneumoniae [16] = assay: Antibacterial activity against erythromycin-susceptible Streptococcus pneumoniae ATCC 49619 by broth microdilution method
Staphylococcus aureus [17] = assay: Antibacterial activity against methicillin-resistant, MLS-resistant (constitutive) Staphylococcus aureus PU 20 by broth microdilution method
Streptococcus pneumoniae [18] = assay: Antibacterial activity against MLS-resistant (constitutive), penicillin-susceptible Streptococcus pneumoniae PU27 by broth microdilution method
Staphylococcus aureus [19] = assay: Antibacterial activity against methicillin-susceptible, MLS-resistant (inducible) Staphylococcus aureus PU 64 by broth microdilution method

SMILES	MIC (Staphylococcus aureus [1]) [µg/mL]	MIC [2] [µg/mL]	MIC (Streptococcus pneumoniae [3]) [µg/mL]	MIC (Streptococcus pyogenes [4]) [µg/mL]	MIC [5] [µg/mL]	MIC (Staphylococcus aureus [6]) [µg/mL]	Ratio [7]	MIC [8] [µg/mL]	MIC (Staphylococcus aureus [9]) [µg/mL]	Ratio (Staphylococcus aureus [10])	Ratio [11]	Ratio (Streptococcus pyogenes [12])	MIC (Streptococcus pyogenes [13]) [µg/mL]	MIC [14] [µg/mL]	MIC (Streptococcus pneumoniae [15]) [µg/mL]	MIC (Streptococcus pneumoniae [16]) [µg/mL]	MIC (Staphylococcus aureus [17]) [µg/mL]	MIC (Streptococcus pneumoniae [18]) [µg/mL]	MIC (Staphylococcus aureus [19]) [µg/mL]
CC[C@H]1OC(=O)[C@H](C)C(=O)[C@H](C)[C@@H](O[C@@H]2O[C@H](C)C[C@H](N(C)C)[C@H]2O)[C@](C)(OC)C[C@@H](C)/C(=N\OC/C=C/c2cnc3ccccc3c2)[C@H](C)[C@H]2OC(=O)O[C@@]21C	0.5 (≈ 0.628 µM)	128 (≈ 161 µM)	64 (≈ 80.4 µM)	32 (≈ 40.2 µM)	8 (≈ 10.1 µM)	1 (≈ 1.26 µM)	4	2 (≈ 2.51 µM)	64 (≈ 80.4 µM)	4	4	4	0.032 (≈ 0.0402 µM)	0.5 (≈ 0.628 µM)	1 (≈ 1.26 µM)	0.125 (≈ 0.157 µM)			
CC[C@H]1OC(=O)[C@H](C)C(=O)[C@H](C)[C@@H](O[C@@H]2O[C@H](C)C[C@H](N(C)C)[C@H]2O)[C@](C)(OC)C[C@@H](C)/C(=N\OC/C=C/c2ccc(-c3ccccn3)s2)[C@H](C)[C@H]2OC(=O)O[C@@]21C	8 (≈ 9.66 µM)	> 256	64 (≈ 77.3 µM)	64 (≈ 77.3 µM)	32 (≈ 38.6 µM)	8 (≈ 9.66 µM)		64 (≈ 77.3 µM)	128 (≈ 155 µM)				0.5 (≈ 0.604 µM)	4 (≈ 4.83 µM)	4 (≈ 4.83 µM)	0.5 (≈ 0.604 µM)			
CC[C@H]1OC(=O)[C@H](C)C(=O)[C@H](C)[C@@H](O[C@@H]2O[C@H](C)C[C@H](N(C)C)[C@H]2O)[C@](C)(OC)C[C@@H](C)/C(=N\OC/C=C/c2ccc(C(=O)c3ccccc3)s2)[C@H](C)[C@H]2OC(=O)O[C@@]21C	16 (≈ 18.7 µM)	> 256	64 (≈ 74.8 µM)	64 (≈ 74.8 µM)	32 (≈ 37.4 µM)	16 (≈ 18.7 µM)		64 (≈ 74.8 µM)	> 256				2 (≈ 2.34 µM)	4 (≈ 4.68 µM)	4 (≈ 4.68 µM)	2 (≈ 2.34 µM)			
CC[C@H]1OC(=O)[C@H](C)C(=O)[C@H](C)[C@@H](O[C@@H]2O[C@H](C)C[C@H](N(C)C)[C@H]2O)[C@](C)(OC)C[C@@H](C)/C(=N\OC/C=C/c2ccc(-c3cccs3)cc2)[C@H](C)[C@H]2OC(=O)O[C@@]21C	32 (≈ 38.7 µM)	256 (≈ 310 µM)	64 (≈ 77.4 µM)	32 (≈ 38.7 µM)	64 (≈ 77.4 µM)	64 (≈ 77.4 µM)		64 (≈ 77.4 µM)	64 (≈ 77.4 µM)				1 (≈ 1.21 µM)	16 (≈ 19.3 µM)	16 (≈ 19.3 µM)	2 (≈ 2.42 µM)			
CC[C@H]1OC(=O)[C@H](C)[C@@H](O/C=C\Cc2cncnc2)[C@H](C)[C@@H](O[C@@H]2O[C@H](C)C[C@H](N(C)C)[C@H]2O)[C@](C)(OC)C[C@@H](C)/C(=N\OC/C=C/c2cnc3ccccc3c2)[C@H](C)[C@H]2OC(=O)O[C@@]21C	32 (≈ 34.9 µM)	> 256	128 (≈ 140 µM)	64 (≈ 69.9 µM)	> 256	> 256		> 256	> 256				2 (≈ 2.18 µM)	16 (≈ 17.5 µM)	32 (≈ 34.9 µM)	2 (≈ 2.18 µM)	> 256	64 (≈ 69.9 µM)	32 (≈ 34.9 µM)
CC[C@H]1OC(=O)[C@H](C)[C@@H](O)[C@H](C)[C@@H](O[C@@H]2O[C@H](C)C[C@H](N(C)C)[C@H]2O)[C@](C)(OC)C[C@@H](C)/C(=N\OC/C=C/c2cnc3ccccc3c2)[C@H](C)[C@H]2OC(=O)O[C@@]21C	128 (≈ 160 µM)	> 256	64 (≈ 80.2 µM)	64 (≈ 80.2 µM)	128 (≈ 160 µM)	128 (≈ 160 µM)		> 256	> 256				8 (≈ 10 µM)	16 (≈ 20.1 µM)	4 (≈ 5.01 µM)	4 (≈ 5.01 µM)	> 256	64 (≈ 80.2 µM)	256 (≈ 321 µM)
CC[C@H]1OC(=O)[C@H](C)[C@@H](O)[C@H](C)[C@@H](O[C@@H]2O[C@H](C)C[C@H](N(C)C)[C@H]2O)[C@](C)(OC)C[C@@H](C)/C(=N\OCCCc2cncc3ccccc23)[C@H](C)[C@H]2OC(=O)O[C@@]21C	> 256	> 256	32 (≈ 40 µM)	32 (≈ 40 µM)	> 256	> 256		> 256	> 256				4 (≈ 5 µM)	16 (≈ 20 µM)	8 (≈ 10 µM)	8 (≈ 10 µM)	> 256	32 (≈ 40 µM)	256 (≈ 320 µM)
